Experimental data reported in US10363239B2, “Method for inhibiting growth of cancer cells” (Pain Therapeutics, Inc., priority 2013, dated 2019).
Like-named read-outs stand apart in the source and are kept apart here.

Experiments:
[1] = target: FLNA pentapeptide of SEQ ID NO: 1 (Bn-VAKGL) (Homo sapiens, UniProt P21333); experiment: FITC-NLX-based FLNA screening assay (inhibition of FITC-naloxone binding to Bn-VAKGL on streptavidin plates); conditions: 10 nM FITC-NLX
mu opiate receptor (MOR) = experiment: MOR agonist activity using [35S]GTPγS binding assay in striatal membranes; format: biochemical; conditions: for MOR agonist activity ([35S]GTPγS binding), FLNA-Binding Compound as Agonist 1 μM + BFNA: 1 μM compound + 1 μM β-funaltrexamine
Summary of the method: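 Striatal membranes (200 μg) were preincubated 5 min at 30 °C in HEPES pH 7.5 with 100 mM NaCl, 1 mM MgCl2 and 0.5 nM [35S]GTPγS, then 5 min more with 0.1–10 μM compound. Gαo was immunoprecipitated and bound radioactivity counted by scintillation.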

[2] = FLNA-binding compound 0.01 μM, read-out: Percent Binding Inhibition
[3] = FLNA-binding compound 0.1 μM, read-out: Percent Binding Inhibition
[4] = FLNA-binding compound 1 μM, read-out: Percent Binding Inhibition
[5] = Series B, 0.1 μM compound, relative to DAMGO
[6] = Series B, 0.1 μM compound, [35S]GTPγS binding to Gαo, striatal membranes
[7] = Series B, 1 μM compound + 1 μM β-FNA
[8] = Series B, 1 μM compound + β-FNA, relative to DAMGO + BFNA
[9] = Series B, 1 μM compound, relative to DAMGO
[10] = Series B, 1 μM compound, [35S]GTPγS binding to Gαo, striatal membranes
[11] = read-out: Percent Binding Inhibition, FLNA-binding compound 0.01 μM
[12] = read-out: Percent Binding Inhibition, FLNA-binding compound 0.1 μM
[13] = read-out: Percent Binding Inhibition, FLNA-binding compound 1 μM
[14] = 0.1 μM compound relative to DAMGO
[15] = 1 μM compound + BFNA relative to DAMGO + BFNA
[16] = 1 μM compound relative to DAMGO
[17] = Series C-2, 0.1 μM compound, relative to DAMGO
[18] = Series C-2, 0.1 μM compound, [35S]GTPγS binding to Gαo, striatal membranes
[19] = Series C-2, 1 μM compound + 1 μM β-FNA
[20] = Series C-2, 1 μM compound + β-FNA, relative to DAMGO + BFNA
[21] = Series C-2, 1 μM compound, relative to DAMGO
[22] = Series C-2, 1 μM compound, [35S]GTPγS binding to Gαo, striatal membranes
[23] = Series C-1, 0.1 μM compound, relative to DAMGO
[24] = Series C-1, 0.1 μM compound, [35S]GTPγS binding to Gαo, striatal membranes
[25] = Series C-1, 1 μM compound + 1 μM β-FNA
[26] = Series C-1, 1 μM compound + β-FNA, relative to DAMGO + BFNA
[27] = Series C-1, 1 μM compound, relative to DAMGO
[28] = Series C-1, 1 μM compound, [35S]GTPγS binding to Gαo, striatal membranes

| Compound | inhibition at 0.01 µM [1, 2] [%] | inhibition at 0.1 µM [1, 3] [%] | inhibition at 1 µM [1, 4] [%] | % DAMGO (0.1 μM) (mu opiate receptor (MOR); [5]) [%] | MOR agonist activity, percent [35S]GTPγS binding at the stated compound concentration (mu opiate receptor (MOR); [6]) [%] | MOR agonist activity, percent [35S]GTPγS binding at the stated compound concentration (mu opiate receptor (MOR); [7]) [%] | % DAMGO + BFNA (mu opiate receptor (MOR); [8]) [%] | % DAMGO (1 μM) (mu opiate receptor (MOR); [9]) [%] | MOR agonist activity, percent [35S]GTPγS binding at the stated compound concentration (mu opiate receptor (MOR); [10]) [%] | inhibition at 0.01 µM [1, 11] [%] | inhibition at 0.1 µM [1, 12] [%] | inhibition at 1 µM [1, 13] [%] | MOR agonist activity ([35S]GTPγS binding), FLNA-Binding Compound as Agonist 0.1 μM (mu opiate receptor (MOR); 0.1 μM compound) [%] | % DAMGO (0.1 μM) (mu opiate receptor (MOR); [14]) [%] | MOR agonist activity ([35S]GTPγS binding), FLNA-Binding Compound as Agonist 1 μM (mu opiate receptor (MOR); 1 μM compound) [%] | MOR agonist activity ([35S]GTPγS binding), FLNA-Binding Compound as Agonist 1 μM + BFNA (mu opiate receptor (MOR)) [%] | % DAMGO + BFNA (mu opiate receptor (MOR); [15]) [%] | % DAMGO (1 μM) (mu opiate receptor (MOR); [16]) [%] | also measured |
| --- | --- | --- | --- | --- | --- | --- | --- | --- | --- | --- | --- | --- | --- | --- | --- | --- | --- | --- | --- |
| COc1ccccc1CC(O)CC1c2c(cc3c(c2OC)OCO3)CCN1C (stereo not drawn) [Compound B0030] | 47 | 50.5 | 57.6 | 62.6 | 107.2 | 90.1 | 172.9 | 103.4 | 276.1 | – | – | – | – | – | – | – | – | – | – |
| CC1CCC(C(C)C)C(OCC(O)CN2CCSCC2)C1 (stereo not drawn) [Compound A0003] | – | – | – | – | – | – | – | – | – | 21.3 | 31.6 | 37.4 | 176.8 | 118.3 | 276.0 | 17.1 | 64.5 | 119.9 | – |
| CC(=O)c1ccc(S(=O)(=O)N2CCC3(CC2)OCCN3S(C)(=O)=O)cc1 [Compound C0056] | 33.7 | 38.9 | 41.4 | – | – | – | – | – | – | – | – | – | – | – | – | – | – | – | % DAMGO (0.1 μM) (mu opiate receptor (MOR); [17]): 68.0%; MOR agonist activity, percent [35S]GTPγS binding at the stated compound concentration (mu opiate receptor (MOR); [18]): 98.6%; MOR agonist activity, percent [35S]GTPγS binding at the stated compound concentration (mu opiate receptor (MOR); [19]): 86.3%; % DAMGO + BFNA (mu opiate receptor (MOR); [20]): 196.1%; % DAMGO (1 μM) (mu opiate receptor (MOR); [21]): 83.0%; MOR agonist activity, percent [35S]GTPγS binding at the stated compound concentration (mu opiate receptor (MOR); [22]): 193.4% |
| CC1CCC(C(C)C)C(OCC(O)CN2CCCc3ccccc32)C1 (stereo not drawn) [Compound A0068] | – | – | – | – | – | – | – | – | – | 51.9 | 54.2 | 58.3 | 73.9 | 36.8 | 110.4 | 98.1 | 182.0 | 35.2 | – |
| CC(=O)c1ccc(S(=O)(=O)N2CC(CN(C)C)OC23CCN(CC2CC2)CC3)cc1 (stereo not drawn) [Compound C0128M] | 46.5 | 54.4 | 58.2 | – | – | – | – | – | – | – | – | – | – | – | – | – | – | – | % DAMGO (0.1 μM) (mu opiate receptor (MOR); [17]): 104.5%; MOR agonist activity, percent [35S]GTPγS binding at the stated compound concentration (mu opiate receptor (MOR); [18]): 197.8%; MOR agonist activity, percent [35S]GTPγS binding at the stated compound concentration (mu opiate receptor (MOR); [19]): 63.9%; % DAMGO + BFNA (mu opiate receptor (MOR); [20]): 131.8%; % DAMGO (1 μM) (mu opiate receptor (MOR); [21]): 115.2%; MOR agonist activity, percent [35S]GTPγS binding at the stated compound concentration (mu opiate receptor (MOR); [22]): 286.0% |
| COc1c2c(cc3c1C(CC(O)CCc1ccccc1)N(C)CC3)OCO2 (stereo not drawn) [Compound B0051] | 29.9 | 35.7 | 43.7 | 68.4 | 115.6 | 43.8 | 263.9 | 76.7 | 167.9 | – | – | – | – | – | – | – | – | – | – |
| COc1ccc(S(=O)(=O)N2CCC3(CC2)OCCN3S(=O)(=O)c2ccc(OC)cc2)cc1 [Compound 7866] | 38.5 | 47.9 | 53.4 | – | – | – | – | – | – | – | – | – | – | – | – | – | – | – | % DAMGO (0.1 μM) (mu opiate receptor (MOR); [23]): 79.3%; Concentration of FLNA-Binding Compound as Agonist 0.1 μM (mu opiate receptor (MOR); [24]): 152.3%; Concentration of FLNA-Binding Compound as Agonist 1 μM + BFNA (mu opiate receptor (MOR); [25]): 62.4%; % DAMGO + BFNA (mu opiate receptor (MOR); [26]): 129.5%; % DAMGO (1 μM) (mu opiate receptor (MOR); [27]): 94.8%; Concentration of FLNA-Binding Compound as Agonist 1 μM (mu opiate receptor (MOR); [28]): 308.2% |
| COc1ccc(CCC(O)CC2c3c(cc4c(c3OC)OCO4)CC[N+]2(C)C)cc1 (stereo not drawn) [Compound B0049] | – | – | – | 102.8 | 181.6 | 133.2 | 506.5 | 143.1 | 364.0 | 32.2 | 40.1 | 47.1 | – | – | – | – | – | – | – |
| COc1c2c(cc3c1C(CC(=O)c1ccc(C#N)cc1)[N+](C)(C)CC3)OCO2 (stereo not drawn) [Compound B0001] | – | – | – | 77.4 | 128.2 | 28.0 | 43.1 | 74.9 | 202.3 | 37.1 | 48.8 | 54.3 | – | – | – | – | – | – | – |
| CC1CCC(C(C)C)C(OCC(O)CN2CCc3ccccc32)C1 (stereo not drawn) [Compound A0065] | – | – | – | – | – | – | – | – | – | – | – | – | 197.6 | 126.6 | 266.8 | 44.9 | 112.5 | 115.7 | Percent Binding Inhibition ([1]; FLNA-binding compound 0.01 μM): 38.7%; Percent Binding Inhibition ([1]; FLNA-binding compound 0.1 μM): 50.0%; Percent Binding Inhibition ([1]; FLNA-binding compound 1 μM): 50.8% |
| COc1cc(C(=O)CC2c3c(cc4c(c3OC)OCO4)CC[N+]2(C)C)cc(OC)c1OC (stereo not drawn) [Compound B0037] | – | – | – | 76.5 | 119.8 | 106.2 | 325.8 | 80.4 | 186.0 | 47.4 | 53 | 52.4 | – | – | – | – | – | – | – |
| CC(=O)c1ccc(C(=O)N2CCC3(CC2)OCCN3C(=O)c2ccc(C(C)=O)cc2)cc1 [Compound C0054] | 32.9 | 39.4 | 43.3 | – | – | – | – | – | – | – | – | – | – | – | – | – | – | – | % DAMGO (0.1 μM) (mu opiate receptor (MOR); [23]): 47.0%; Concentration of FLNA-Binding Compound as Agonist 0.1 μM (mu opiate receptor (MOR); [24]): 68.2%; Concentration of FLNA-Binding Compound as Agonist 1 μM + BFNA (mu opiate receptor (MOR); [25]): 43.5%; % DAMGO + BFNA (mu opiate receptor (MOR); [26]): 98.9%; % DAMGO (1 μM) (mu opiate receptor (MOR); [27]): 54.5%; Concentration of FLNA-Binding Compound as Agonist 1 μM (mu opiate receptor (MOR); [28]): 127.0% |
| CC1CCC(C(C)C)C(OCC(O)CN2CCN(CCN3CCCCC3)CC2)C1 (stereo not drawn) [Compound A0031] | 40.8 | 47.6 | 52.9 | – | – | – | – | – | – | – | – | – | 178.2 | 100.9 | 297.0 | 150.9 | 573.8 | 116.8 | – |
| CC1CCC(C(C)C)C(OCC(O)CN2CCCCC2)C1 (stereo not drawn) [Compound A0005] | – | – | – | – | – | – | – | – | – | 34.2 | 38.2 | 43.8 | 179.7 | 105.0 | 239.2 | 23.5 | 45.1 | 89.6 | – |
| COc1ccc(CCC(=O)CC2c3c(cc4c(c3OC)OCO4)CC[N+]2(C)C)c(OC)c1 (stereo not drawn) [Compound B0043] | – | – | – | 42.4 | 74.8 | 166.4 | 632.7 | 97.6 | 248.1 | 30.8 | 39.2 | 46.8 | – | – | – | – | – | – | – |
| CC1CN(CC(O)COc2ccc(Br)c(F)c2)CC(C)O1 (stereo not drawn) [Compound A0041] | – | – | – | – | – | – | – | – | – | 45.8 | 51.7 | 56.9 | 212.7 | 108.4 | 283.6 | 50.6 | 68.5 | 102.8 | – |
| CC1CCC(C(C)C)C(OCC(O)CN2CCN(CCc3ccccc3)CC2)C1 (stereo not drawn) [Compound A0020] | 37.8 | 38.8 | 45.8 | – | – | – | – | – | – | – | – | – | 168.6 | 100.9 | 217.4 | 67.4 | 194.2 | 88.7 | – |
